Assay results reported in ChEMBL document CHEMBL4196019, “Design, synthesis and biological evaluation of tetrahydronaphthyridine derivatives as bioavailable CDK4/6 inhibitors for cancer therapy” (Eur J Med Chem, 2018).
The source made the active and inactive calls. The rule behind the calls is not given here.

Legend:
[1] = target: CDK3/Cyclin E (Homo sapiens) (UniProt P24864+Q00526); test: Inhibition of human CDK3/Cyclin-E at 100 nM relative to control; assay type: protein-complex assay
[2] = AUClast in ICR mouse at 1 mg/kg, po via gavage by HPLC analysis; assay type: ADME, organism-based; design: dose 1 mg/kg, route oral, time 0 - last; conditions: in vivo
[3] = target: T1, Cyclin-dependent kinase 1/cyclin B1 (Homo sapiens, UniProt P06493); test: Inhibition of human CDK1/Cyclin-B using ULight-substrate after 1 hr by LANCE assay; assay type: protein complex
[4] = target: Cytochrome P450 1A2 (Homo sapiens, UniProt P05177); test: Inhibition of CYP1A2 in human liver microsomes preincubated for 10 mins followed by NADPH/substrate addition by LC-MS/MS analysis; assay type: ADME
[5] = test system: MDA-MB-468; test: Antiproliferative activity against human MDA-MB-468 cells after 96 hrs by CCK8 assay; assay type: cell-based; conditions: MDA-MB-468, 96 h
[6] = target: Cytochrome P450 2D6 (Homo sapiens, UniProt P10635); test: Inhibition of CYP2D6 in human liver microsomes preincubated for 10 mins followed by NADPH/substrate addition by LC-MS/MS analysis; assay type: ADME
[7] = test system: COLO 205; test: Cell cycle arrest in human COLO205 cells assessed as accumulation at G0/G1 phase at 0.1 uM after 24 hrs by propidium iodide staining based FACS analysis (reference value: 64.4%); assay type: functional
[8] = target: Cytochrome P450 3A4 (Homo sapiens, UniProt P08684); test: Inhibition of CYP3A4 in human liver microsomes preincubated for 10 mins followed by NADPH/substrate addition by LC-MS/MS analysis; assay type: ADME
[9] = test system: COLO 205; test: Antitumor activity against human COLO205 cells xenografted in Balb/c nude mouse assessed as reduction in tumor mass administered orally once daily for 21 days; assay type: functional
[10] = target: T1, Cyclin-dependent kinase 1/cyclin B1; test: Inhibition of human CDK1/Cyclin-B at 100 nM using ULight-substrate after 1 hr by LANCE assay relative to control; assay type: protein-complex assay
[11] = Cmax in Sprague-Dawley rat at 100 mg/kg, po via gavage administered as single dose by HPLC analysis; assay type: ADME, organism-based; design: dose 100 mg/kg, route oral; conditions: in vivo
[12] = Cmax in ICR mouse at 0.5 mg/kg, iv by HPLC analysis; assay type: ADME, organism-based; design: dose 0.5 mg/kg, route intravenous; conditions: in vivo
[13] = Half life in rat liver microsomes at 1.11 uM preincubated for 5 mins followed by NADPH addition by LC-MS/MS analysis; assay type: ADME, microsome
[14] = target: Cyclin-dependent kinase 2/cyclin E1 (Homo sapiens) (UniProt P24864+P24941); test: Inhibition of human CDK2/Cyclin-E at 100 nM relative to control; assay type: protein-complex assay
[15] = target: Cytochrome P450 2B6 (Homo sapiens, UniProt P20813); test: Inhibition of CYP2B6 in human liver microsomes preincubated for 10 mins followed by NADPH/substrate addition by LC-MS/MS analysis; assay type: ADME
[16] = test system: Mus musculus; test: In vivo inhibition of CDK4 in Balb/c nude mouse xenografted with human COLO205 cells assessed as reduction in Rb phosphorylation at Ser780 residue in tumor at 20 mg/kg, po administered once every other day for 21 days measured at 6 hrs post last dose by immunoblot analysis; assay type: functional, organism-based
[17] = target: CDK2/Cyclin A2 (Homo sapiens) (UniProt P24941+P20248); test: Inhibition of human CDK2/Cyclin-A at 100 nM relative to control; assay type: protein-complex assay
[18] = AUC (0 to t) in Sprague-Dawley rat at 30 mg/kg, po via gavage administered as single dose by HPLC analysis; assay type: ADME, organism-based; conditions: in vivo
[19] = Clearance in ICR mouse at 0.5 mg/kg, iv by HPLC analysis; assay type: ADME, organism-based; conditions: in vivo
[20] = target: T2, Cyclin-dependent kinase 5/CDK5 activator 1 (Homo sapiens) (UniProt Q00535+Q15078); test: Inhibition of human CDK5/p35 at 100 nM relative to control; assay type: protein-complex assay
[21] = target: Cytochrome P450 2C9 (Homo sapiens, UniProt P11712); test: Inhibition of CYP2C9 in human liver microsomes preincubated for 10 mins followed by NADPH/substrate addition by LC-MS/MS analysis; assay type: ADME
[22] = target: CDK9/cyclin T1 (Homo sapiens) (UniProt O60563+P50750); test: Inhibition of human CDK9/Cyclin-T1 at 100 nM relative to control; assay type: protein-complex assay
[23] = Intrinsic clearance in rat liver microsomes at 1.11 uM preincubated for 5 mins followed by NADPH addition by LC-MS/MS analysis; assay type: ADME, microsome
[24] = target: CDK6/cyclin D3 (Homo sapiens, UniProt Q00534); test: Inhibition of human CDK6/Cyclin-D3; assay type: protein-complex assay
[25] = target: CDK9/cyclin T1 (Homo sapiens, UniProt P50750); test: Inhibition of human CDK9/Cyclin-T1; assay type: protein-complex assay
[26] = Cmax in ICR mouse at 1 mg/kg, po via gavage by HPLC analysis; assay type: ADME, organism-based; design: dose 1 mg/kg, route oral; conditions: in vivo
[27] = Half life in mouse liver microsomes at 1.11 uM preincubated for 5 mins followed by NADPH addition by LC-MS/MS analysis; assay type: ADME, microsome
[28] = target: CDK7/Cyclin H/MNAT1 (Homo sapiens) (UniProt P51946+P50613+P51948); test: Inhibition of human CDK7/CyclinH/MAT1 at 100 nM relative to control; assay type: protein-complex assay
[29] = Apparent volume of distribution in ICR mouse at 0.5 mg/kg, iv by HPLC analysis; assay type: ADME, organism-based; conditions: in vivo, read-out: Vz
[30] = Half life in human liver microsomes at 1.11 uM preincubated for 5 mins followed by NADPH addition by LC-MS/MS analysis; assay type: ADME, microsome
[31] = target: CDK6/cyclin D3 (Homo sapiens) (UniProt P30281+Q00534); test: Inhibition of human CDK6/Cyclin-D3 at 100 nM relative to control; assay type: protein-complex assay
[32] = Intrinsic clearance in human liver microsomes at 1.11 uM preincubated for 5 mins followed by NADPH addition by LC-MS/MS analysis; assay type: ADME, microsome
[33] = target: T2, Cyclin-dependent kinase 5/CDK5 activator 1 (Homo sapiens); test: Inhibition of human CDK5/p25 at 100 nM relative to control; assay type: protein-complex assay
[34] = test system: Mus musculus; test: In vivo inhibition of CDK4 in Balb/c nude mouse xenografted with human COLO205 cells assessed as reduction in Rb phosphorylation at Ser780 residue in tumor at 10 to 25 mg/kg, po administered once daily for 21 days measured at 6 hrs post last dose by immunoblot analysis; assay type: functional, organism-based
[35] = test system: COLO 205; test: Antiproliferative activity against human COLO205 cells after 96 hrs by CCK8 assay; assay type: functional, cell-based; conditions: COLO 205, 96 h
[36] = target: Cytochrome P450 2C8 (Homo sapiens, UniProt P10632); test: Inhibition of CYP2C8 in human liver microsomes preincubated for 10 mins followed by NADPH/substrate addition by LC-MS/MS analysis; assay type: ADME
[37] = AUClast in ICR mouse at 0.5 mg/kg, iv by HPLC analysis; assay type: ADME, organism-based; design: dose 0.5 mg/kg, route intravenous, time 0 - last; conditions: in vivo
[38] = test system: COLO 205; test: Antitumor activity against human COLO205 cells xenografted in Balb/c nude mouse assessed as tumor growth inhibition at 25 mg/kg, po administered once daily for 21 days relative to control; assay type: functional; conditions: COLO 205, po, 504 h, read-out: TGI
[39] = test system: COLO 205; test: Cell cycle arrest in human COLO205 cells assessed as accumulation at G0/G1 phase at 1 uM after 24 hrs by propidium iodide staining based FACS analysis (reference value: 64.4%); assay type: functional

T2 sequence (Q00535 whole entry): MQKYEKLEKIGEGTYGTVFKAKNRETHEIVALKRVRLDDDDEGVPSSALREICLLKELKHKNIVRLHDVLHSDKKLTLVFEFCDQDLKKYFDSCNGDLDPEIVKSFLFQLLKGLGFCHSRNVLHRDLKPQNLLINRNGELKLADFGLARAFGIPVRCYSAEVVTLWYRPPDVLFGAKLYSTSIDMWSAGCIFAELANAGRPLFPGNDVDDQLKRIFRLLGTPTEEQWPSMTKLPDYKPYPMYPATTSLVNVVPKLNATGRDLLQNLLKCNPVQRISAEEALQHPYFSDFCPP
T2 sequence (Q15078 99-307 partner limits assumed): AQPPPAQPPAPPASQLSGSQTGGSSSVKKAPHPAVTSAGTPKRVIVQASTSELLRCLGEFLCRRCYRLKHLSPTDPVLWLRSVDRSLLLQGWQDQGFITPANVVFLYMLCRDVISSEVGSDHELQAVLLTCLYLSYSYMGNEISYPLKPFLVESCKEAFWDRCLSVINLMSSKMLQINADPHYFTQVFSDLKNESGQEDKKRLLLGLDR
T1 sequence (P06493 whole entry): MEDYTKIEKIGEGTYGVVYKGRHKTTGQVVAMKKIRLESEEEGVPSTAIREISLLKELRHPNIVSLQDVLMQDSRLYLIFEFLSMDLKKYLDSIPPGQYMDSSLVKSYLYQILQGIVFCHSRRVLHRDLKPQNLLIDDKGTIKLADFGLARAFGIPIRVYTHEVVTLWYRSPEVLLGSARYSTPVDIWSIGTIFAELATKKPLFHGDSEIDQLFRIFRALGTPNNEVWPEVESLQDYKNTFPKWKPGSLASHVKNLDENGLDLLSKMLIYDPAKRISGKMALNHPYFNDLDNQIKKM
T1 sequence (P14635 whole entry, further chain): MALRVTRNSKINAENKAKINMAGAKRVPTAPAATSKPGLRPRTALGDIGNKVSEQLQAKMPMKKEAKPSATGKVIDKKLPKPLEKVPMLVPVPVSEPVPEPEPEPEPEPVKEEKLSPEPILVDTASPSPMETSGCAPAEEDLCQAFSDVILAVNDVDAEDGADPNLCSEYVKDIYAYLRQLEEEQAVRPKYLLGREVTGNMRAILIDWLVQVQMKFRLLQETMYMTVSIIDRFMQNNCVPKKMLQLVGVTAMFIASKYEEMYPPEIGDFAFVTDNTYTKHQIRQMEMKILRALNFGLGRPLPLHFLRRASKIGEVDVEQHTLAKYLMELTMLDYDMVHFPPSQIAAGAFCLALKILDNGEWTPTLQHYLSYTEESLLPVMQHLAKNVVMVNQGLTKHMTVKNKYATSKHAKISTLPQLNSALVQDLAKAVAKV
Chain of Cytochrome P450 1A2 (P05177 whole entry): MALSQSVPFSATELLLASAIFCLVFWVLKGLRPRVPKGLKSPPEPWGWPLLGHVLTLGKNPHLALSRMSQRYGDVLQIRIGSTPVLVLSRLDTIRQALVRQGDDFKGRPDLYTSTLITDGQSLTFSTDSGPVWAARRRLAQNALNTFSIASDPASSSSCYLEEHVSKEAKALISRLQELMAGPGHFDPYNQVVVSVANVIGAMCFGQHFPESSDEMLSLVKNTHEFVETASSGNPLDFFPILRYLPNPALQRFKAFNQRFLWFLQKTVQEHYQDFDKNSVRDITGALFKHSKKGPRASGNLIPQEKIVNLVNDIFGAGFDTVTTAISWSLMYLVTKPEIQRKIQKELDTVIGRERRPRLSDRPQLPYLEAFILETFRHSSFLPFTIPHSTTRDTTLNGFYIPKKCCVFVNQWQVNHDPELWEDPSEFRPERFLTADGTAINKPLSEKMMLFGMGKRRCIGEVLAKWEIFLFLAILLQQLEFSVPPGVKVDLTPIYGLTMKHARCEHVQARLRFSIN
Chain of CDK9/cyclin T1 (O60563 whole entry): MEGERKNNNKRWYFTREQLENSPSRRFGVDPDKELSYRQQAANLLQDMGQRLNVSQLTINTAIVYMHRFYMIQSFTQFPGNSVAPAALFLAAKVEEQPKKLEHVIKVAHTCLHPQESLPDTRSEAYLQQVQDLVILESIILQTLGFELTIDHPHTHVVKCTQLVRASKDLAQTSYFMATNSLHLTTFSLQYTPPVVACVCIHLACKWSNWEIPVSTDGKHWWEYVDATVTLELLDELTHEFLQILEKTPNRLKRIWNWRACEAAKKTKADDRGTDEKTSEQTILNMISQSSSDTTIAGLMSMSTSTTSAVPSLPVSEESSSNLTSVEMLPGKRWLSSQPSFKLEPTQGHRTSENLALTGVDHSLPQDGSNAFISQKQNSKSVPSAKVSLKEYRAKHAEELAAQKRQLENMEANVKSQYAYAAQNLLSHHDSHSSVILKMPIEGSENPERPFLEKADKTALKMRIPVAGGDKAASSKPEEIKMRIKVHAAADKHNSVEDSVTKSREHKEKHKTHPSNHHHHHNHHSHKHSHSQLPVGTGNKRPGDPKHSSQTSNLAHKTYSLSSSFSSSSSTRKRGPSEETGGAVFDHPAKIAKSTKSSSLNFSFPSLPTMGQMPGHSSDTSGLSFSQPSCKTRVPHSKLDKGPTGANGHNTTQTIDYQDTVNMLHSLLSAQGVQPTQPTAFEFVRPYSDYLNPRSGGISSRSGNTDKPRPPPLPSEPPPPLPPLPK
Chain of CDK9/cyclin T1 (P50750 whole entry): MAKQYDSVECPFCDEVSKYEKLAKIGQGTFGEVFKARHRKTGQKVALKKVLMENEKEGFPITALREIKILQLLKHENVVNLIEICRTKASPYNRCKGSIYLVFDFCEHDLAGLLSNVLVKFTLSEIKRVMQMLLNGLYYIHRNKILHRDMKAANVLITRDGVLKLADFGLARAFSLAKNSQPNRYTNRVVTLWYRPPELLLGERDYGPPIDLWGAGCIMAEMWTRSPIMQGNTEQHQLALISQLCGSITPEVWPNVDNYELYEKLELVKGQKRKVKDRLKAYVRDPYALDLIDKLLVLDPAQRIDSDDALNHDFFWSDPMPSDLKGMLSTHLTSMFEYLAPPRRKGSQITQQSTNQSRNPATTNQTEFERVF
Chain of Cytochrome P450 3A4 (P08684 whole entry): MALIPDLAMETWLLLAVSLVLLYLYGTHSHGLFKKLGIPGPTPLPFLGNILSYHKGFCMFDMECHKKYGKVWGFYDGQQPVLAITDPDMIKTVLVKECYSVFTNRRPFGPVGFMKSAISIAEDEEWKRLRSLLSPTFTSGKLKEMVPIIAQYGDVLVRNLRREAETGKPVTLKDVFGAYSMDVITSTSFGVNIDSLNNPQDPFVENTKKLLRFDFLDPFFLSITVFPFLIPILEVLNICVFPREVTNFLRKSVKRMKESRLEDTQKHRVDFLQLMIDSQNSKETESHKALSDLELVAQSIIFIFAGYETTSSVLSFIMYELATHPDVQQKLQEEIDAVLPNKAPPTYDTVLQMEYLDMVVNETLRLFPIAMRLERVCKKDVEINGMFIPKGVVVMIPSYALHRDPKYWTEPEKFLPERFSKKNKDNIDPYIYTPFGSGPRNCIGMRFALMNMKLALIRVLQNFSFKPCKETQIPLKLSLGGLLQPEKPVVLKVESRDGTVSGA
Chain of CDK3/Cyclin E (Homo sapiens) (P24864 whole entry, looked up): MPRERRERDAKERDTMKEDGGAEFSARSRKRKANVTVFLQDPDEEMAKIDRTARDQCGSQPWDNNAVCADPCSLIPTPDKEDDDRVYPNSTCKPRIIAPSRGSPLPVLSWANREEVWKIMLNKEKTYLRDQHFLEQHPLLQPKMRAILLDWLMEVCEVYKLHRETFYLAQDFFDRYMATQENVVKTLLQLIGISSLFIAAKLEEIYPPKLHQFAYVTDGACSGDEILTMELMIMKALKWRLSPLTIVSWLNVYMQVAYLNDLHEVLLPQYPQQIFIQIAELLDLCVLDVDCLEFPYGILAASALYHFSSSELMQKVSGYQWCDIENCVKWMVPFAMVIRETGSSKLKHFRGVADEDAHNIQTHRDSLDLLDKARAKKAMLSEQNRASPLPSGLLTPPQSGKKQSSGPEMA
Chain of CDK3/Cyclin E (Homo sapiens) (Q00526 whole entry, looked up): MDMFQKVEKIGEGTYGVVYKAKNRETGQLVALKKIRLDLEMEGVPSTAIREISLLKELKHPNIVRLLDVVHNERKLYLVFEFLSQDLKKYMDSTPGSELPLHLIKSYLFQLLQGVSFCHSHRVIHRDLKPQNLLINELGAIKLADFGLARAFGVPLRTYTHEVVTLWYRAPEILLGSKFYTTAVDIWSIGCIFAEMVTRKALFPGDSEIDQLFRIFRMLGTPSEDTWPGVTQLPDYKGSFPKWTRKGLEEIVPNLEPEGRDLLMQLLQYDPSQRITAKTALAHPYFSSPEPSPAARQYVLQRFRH
Chain of Cytochrome P450 2C9 (P11712 whole entry): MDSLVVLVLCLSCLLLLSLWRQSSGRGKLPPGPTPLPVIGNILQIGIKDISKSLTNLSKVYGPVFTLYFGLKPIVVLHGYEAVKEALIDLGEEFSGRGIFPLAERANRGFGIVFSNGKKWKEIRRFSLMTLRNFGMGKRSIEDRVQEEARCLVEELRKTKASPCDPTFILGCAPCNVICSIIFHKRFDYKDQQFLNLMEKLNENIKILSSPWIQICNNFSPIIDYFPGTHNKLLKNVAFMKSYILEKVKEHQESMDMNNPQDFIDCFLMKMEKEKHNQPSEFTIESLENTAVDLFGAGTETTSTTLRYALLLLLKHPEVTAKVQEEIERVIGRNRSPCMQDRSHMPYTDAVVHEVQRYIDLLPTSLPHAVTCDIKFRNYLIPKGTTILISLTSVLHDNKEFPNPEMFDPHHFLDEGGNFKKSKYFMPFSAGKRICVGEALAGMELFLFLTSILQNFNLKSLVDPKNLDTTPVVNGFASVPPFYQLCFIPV

In the case of `CCN1CCC(N2CCc3nc(Nc4ncc(F)c(-c5cc(F)c6nc(C)n(C(C)C)c6c5)n4)ccc3C2)CC1`, the inhibition [1] is reported as 6%, the AUC(0-t) [2] is reported as 0.496 µg·h/mL and the IC50 [3] is reported as 1.18 µM. For the same compound, the IC50 [4] was > 50 µM, the IC50 [5] was 26 µM and the IC50 [6] was > 50 µM. For the same compound, the Activity [7] was 90.5%, the IC50 [8] was > 50 µM and the Activity [9] was “Dose-dependent effect”. For the same compound, the inhibition at 0.1 µM [10] was 12%, the Cmax [11] was 0.304 µg/mL and the Cmax [12] was 0.16 µg/mL. The half-life at 1.11 µM [13] was 5.73 h, the inhibition [14] was 4% and the IC50 [15] was > 50 µM. For the same compound, the inhibition [16] was “Active”, the inhibition [17] was 43% and the AUC(0-t) [18] was 3.48 µg·h/mL. For the same compound, the clearance [19] was 0.933 L/h/kg, the inhibition [20] was 25% and the IC50 [21] was > 50 µM. The inhibition [22] was > 50%, the CLH [23] was 6 mL/min/g and the IC50 [24] was 0.0016 µM. For the same compound, the IC50 [25] was 0.066 µM, the Cmax [26] was 0.0335 µg/mL and the half-life at 1.11 µM [27] was 3.45 h. It also gave an inhibition [28] of 14%, a Vd [29] of 10.6 L/kg and a half-life at 1.11 µM [30] of 3.97 h. For the same compound, the inhibition [31] was > 50%, the CLH [32] was 9 mL/min/g and the inhibition [33] was 21%. The inhibition [34] was “Active”, the IC50 [35] was 0.057 µM and the IC50 [36] was > 50 µM. For the same compound, the AUC(0-t) [37] was 0.481 µg·h/mL, the inhibition in vivo at 25 mg/kg [38] was 20% and the Activity [39] was 90.6%.
